Measurements as given in patent US20230364104A1, “PHARMACEUTICAL COMBINATION FOR THE TREATMENT OF HUMAN HYPOCHOLINERGIC DISORDERS” (priority 2020, published 2023).
Like-named read-outs stand apart in the source and are kept apart here.

Legend:
myocardial tissue = conditions: acetylcholine 1 μM, cited from earlier work
[1] = in vivo; cited from earlier work
[2] = oral pirenzepine 100-300 mg co-administered with donepezil, healthy volunteers

Structure (SMILES) | suppression of the effect of acetylcholine (myocardial tissue; antagonist 1 μM) | further results
CCN(CC)CCCCC1CCN(CC(=O)N2c3ccccc3C(=O)Nc3cccnc32)CC1 [AQ-RA 741, 11-[[4-[4-(diethylamino)butyl]-1-piperidinyl]acetyl]-5,11-dihydro-6H-pyrido[2,3-b] [1,4]benzodiazepin-6-one] | partial suppression of the effect of acetylcholine | 
CN1[C@@H]2CC[C@H]1C[C@@H](OC(=O)C(CO)c1ccccc1)C2 (stereo partly drawn) [atropine] | completely abolished the effect of acetylcholine | 
O=C(O[C@H]1CN2CCC1CC2)N1CCc2ccccc2[C@@H]1c1ccccc1 [solifenacin] |  | effect on QTc [1]: increase in QTc
CN1CCN(CC(=O)N2c3ccccc3C(=O)Nc3cccnc32)CC1 [pirenzepine, 11-[(4-methylpiperazin-1-yl)acetyl]-5,11-dihydro-6H-pyrido[2,3-b][1,4]benzodiazepin-6-one] | did not suppress the effect of acetylcholine | increase in the tolerated dose of donepezil [2]: enabling the safe increase in the dose of donepezil
C[N+]1(C)CCC(OC(=O)C(c2ccccc2)c2ccccc2)CC1.[I-] [4DAMP, 4-[(Diphenylacetyl)oxy]-1,1-dimethylpiperidin-1-ium iodide] |  | suppression of the effect of acetylcholine (myocardial tissue; antagonist 0.1 μM): did not suppress the effect of acetylcholine
